Measured values taken from patent publication US7763287B2, “Extract of Cercis chinensis having anti-oxidant activity and anti-aging activity, and cosmetical composition containing the extract for anti-oxidation, skin-aging protection and wrinkle improvement” (Hankook Pharm. Co., Inc., priority 2002, dated 2010).

Legend:
[1] = tested on: rat brain homogenates; test: Lipid peroxidation inhibitory activity (Fe2+/ascorbic acid, TBA method); details: Table 4
[2] = Nitric oxide scavenging activity; format: biochemical
[3] = DPPH radical scavenging activity; format: biochemical
Experimental: In order to extract an effective ingredient having an anti-oxidant activity from Cercis chinensis, an experiment was performed following the procedure represented in a schematic diagram of FIG. 1. Particularly, 1 kg of leaves and stems of Cercis chinensis, dried in shadow, were grinded to powder using a pulverizer, which was extracted by ethanol (EtOH) at room temperature twice at intervals of two weeks. For the extraction, ethanol solutions were prepared by adding ethanol gradually, 10% at a time, from 0% to 100%. The prepared ethanol solutions were used for the extraction. […] But, it looses absorbance when being scavenged. Based on that point, an anti-oxidant activity can be measured using DPPH. […] Then, each solution was distributed into a 96 well plate by 10 μl each, into which 190 μl of DPPH(Sigma, St. Louis, Mo, USA) solution whose ethanol concentration was 2×10^−4 M/ml was added. The plate was just left at room temperature for 30 minutes. Finally, OD517 was measured at 517 nm. For a control, DMSO was added instead of the sample, and changes of optical density were investigated. […] DDPH Radical Scavenging Activity (%)=(Acontrol−Asample)/(Acontrol)×100 <Mathematica Formula 1>
Acontrol: Optical density of control group (sample was not added),
Asample: Optical density of experimental group (sample was added).
In order to identify a fraction having an anti oxidant activity among hexane Fr, EtOAc Fr and BuOH Fr obtained above, a DPPH radical scavenging activity was measured using each extract of each fraction following the method used above. At this time, vitamin E, known to have high DPPH radical scavenging activity, was used as a comparing group.
At this time, BHA (tert-butyl-4 hydroxyanisole) and α-tocopherol, synthetic anti-oxidant agents, were used as positive controls.

[4] = Superoxide radical scavenging activity (xanthine/xanthine oxidase, NBT); format: biochemical; details: Table 6
Experimental: Superoxide radical (O^2−) itself has a little reactivity, but is easily changed into H2O2 that generates hydroxyl radical having strong reactivity or is reacted with nitric oxide (NO.) to generate peroxy nitrite (ONOO^−) having strong reactivity, too. Thus, it might be a reason for oxidation of SH-group, nitration of protein tyrosine, lipid peroxidation and DNA damage. […] Basically, measurement of superoxide radical scavenging activity was performed by investigating the activity of superoxide dismutase (SOD), an enzyme scavenging superoxide by dismutation of the same. In the present invention, an activity of a sample to inhibit superoxide production by the enzyme reaction of xanthine/xanthine oxidase and its another activity to inhibit reaction (NBT+20^2−→NBTH2+2O2) generating formazan by reduction of nitro blue tetrazolium (referred as ‘NBT’ hereinafter) were measured. Particularly, wells of a 96-well plate were supplemented with 50 μl of 4 mM xanthine (Sigma), 50 μl of […] NBT (Sigma), 50 μl of 50 mM phosphate buffer (pH 7.8, 1 mM EDTA) and 10 μl of each sample, into which 40 μl of xanthine oxidase was added to induce a reaction. After the reaction was completed, each reaction solution was collected as scheduled, and OD550 was measured with an ELISA reader. […] Superoxide Radical Scavenging Activity (%)=(Acontrol−Asample)/(Acontrol−Ablank)×100 <Mathematical Formula 4> […]

[5] = tested on: HEK-N/F cells; test: Protection of cells from oxidative damage induced by t-butylhydroperoxide; format: cell-based, human; details: 1.5 mM t-butylhydroperoxide 3 hours
Experimental: t-butylhydroperoxide is metabolized into a free radical intermediate as it comes in a cell, so that it causes lipid peroxidation, resulting in cell damage. This phenomenon is similar to that caused by oxidataive stress accumulated in cells and tissues. […] HEK-N/F, an epidermal cell line of a newborn baby, was treated with 1.5 mM of t-butylhydroxyperoxide for 3 hours.

[6] = Hydroxyl radical scavenging activity (deoxyribose/TBA, method of Halliwell); format: biochemical; details: 10 μg of sample, total volume 1 ml
Experimental: Hydroxyl radical (HO.) is generated by the reaction of a metal ion or a superoxide radical. Owing to its strong reactivity, hydroxyl radical causes oxidative damages to DNA, protein and lipid in vivo. Nitric oxide (NO.) is reacted with a superoxide radical to generate a peroxy nitrite (ONOO—), also having strong reactivity. […] Particularly, each compound was mixed with 10 μg of a sample dissolved in DMSO, phosphate buffer (20 mM, pH 7.4) 5.6 mM deoxyribose, 0.1 mM FeCl3, 1 mM H2O2 and 0.1 mM ascorbic acid, making total volume 1 ml, which was then reacted at 37° C. for 60 minutes. 250 μl of 20% TCA and 250 μl of 1% TBA solution (dissolved in 50 mM NaOH) were added to the reaction solution, followed by thermal reaction at 95° C. for 5 minutes. After completing the reaction, OD532 was measured. Hydroxyl radical scavenging activity was calculated by the below
<Mathematical Formula 3>. BHA and α-tocopherol were used for a positive control. Hydroxyl Radical Scavenging Activity (%)=(Acontrol−Asample)/(Acontrol−Ablank)×100 <Mathematical Formula 3>
Acontrol: Optical density of control group well (sample was not added),
Asample: Optical density of experimental group well (sample was added),
Ablank: Optical density of well not added with sample, TCA and TBA

- Lipid Peroxidation Inhibitory Activity IC50 [1]: 0.95 ± 0.06 µg/mL
- DPPH radical scavenging activity IC50 ([3]; Table 3): 7.3 ± 0.3 µg/mL
- Superoxide radical scavenging activity IC50 [4]: 12.1 ± 1.1 µg/mL
Compound: O=c1c(O)c(-c2cc(O)c(O)c(O)c2)oc2cc(O)cc(O)c12 [Chemical Formula 9, myricetin]
- Nitric oxide scavenging activity (in words) [2]: comparatively high nitric oxide scavenging activity
- DPPH radical scavenging activity (in words) [3]: strong radical scavenging activity
- Cell survival rate (%) [5]: 61.0±4.5%
- TBARS (pmol/mg protein) ([5]; compound 50.0 µg/ml): 810.7 ± 77.0 pmol/mg protein
- Hydroxyl radical scavenging activity (%) [6]: 8.7%
